Experimental data: BigSolDB 2.1

[NH3+]C1CCCCC1.[S-]c1nc2ccccc2s1
solubility (mole fraction)
Settings	303.15 K	308.15 K	313.15 K	318.15 K	323.15 K	328.15 K	333.15 K	338.15 K	343.15 K	348.15 K
in 1,4-dioxane	0.000208	0.000291	0.000418	0.000608	0.000793	0.00105	0.00141	0.00169	0.00217	0.00266
in MIBK	0.000389	0.000506	0.000672	0.00085	0.00111	0.00141	0.00177	0.00215	0.00252	0.00306
in toluene	2e-05	4.26e-05	5.64e-05	6.78e-05	8.02e-05	0.000121	0.000175	0.00026	0.000344	0.000421
in water	1.32e-05	1.95e-05	2.59e-05	3.24e-05	4e-05	5.4e-05	7.55e-05	8.97e-05	0.000124	0.000164
